According to PMC8377144, “Retro-enantio isomer of angiopep-2 assists nanoprobes across the blood-brain barrier for targeted magnetic resonance/fluorescence imaging of glioblastoma” (Signal Transduction and Targeted Therapy, 2021):

System: in vitro BBB model (bEnd.3 cells cocultured with U87-MG cells)
Assay: NaFl permeability test of the in vitro BBB model (Transwell)
Type: in vitro ADME, mouse
Details: bEnd.3 upper / U87-MG lower chamber, 3 µm polycarbonate, 0.33 cm^2, 200 µL NaFl 10 µg/mL upper, 900 µL PBS lower, 37 °C, sampling 30, 60, 90 min, microplate reader 485/535 nm
Experimental: Construction of the in vitro BBB model: U87-MG cells and bEnd.3 cells were initially cultured in high-glucose DMEM containing 10% FBS and 1% penicillin/streptomycin at 37 °C with 5% CO2. Moreover, a layer of a collagen solution was smeared on the inner side of the polycarbonate Transwell (3 µm mean pore size, 0.33 cm^2 surface area, Millipore, USA) and dried naturally on a clean bench for 30 min. Then, bEnd.3 cells were inoculated into the upper chamber of 24-well transwells units at a density of 5 × 10^4 cells per well. Two days later, U87-MG cells were inoculated into the lower chamber at a density of 1 × 10^5 cells per well and cocultured with bEnd.3 cells for one week.
Another test taken as an example from a previous study using sodium fluorescein (NaFl) was also introduced to evaluate in vitro BBB permeability.[44] […] The absorbance of standard solutions was obtained by a multidetection monochrometer microplate reader, and subsequently, a NaFl concentration-absorbance curve was made. With the help of the curve, we measured the in vitro BBB permeability with NaFl. […] Then, a multidetection monochrometer microplate reader (485/535 nm) was used to measure the amount of NaFl in the […]. The apparent permeability coefficient (Papp) was calculated as follows: […]

SMILES: O=C([O-])c1ccccc1-c1c2ccc(=O)cc-2oc2cc([O-])ccc12.[Na+].[Na+] [NaFl, sodium fluorescein]
- Papp of NaFl, BBB model group: 11.24 ± 0.73 × 10^−6 cm/s
